Columns and labels:
Format in all cases: in vivo, human
[1] = Post-marketing spontaneous and clinical serious adverse event hepatic data (LEAP), 2 years after first approval
Source text: During the 2-year period since ambrisentan was first approved, the vast majority of patient exposure had been in the U.S. through Letairis Education and Access Program (LEAP). As of 14 Jun. 2009, a total of 6,622 patients had enrolled in LEAP and received at least one shipment of ambrisentan. Approximately half of the patients for whom duration of therapy was available received ambrisentan for a period of at least 6 months, resulting in a total of 3,847 patient-years of exposure. Exposure duration is depicted in FIG. 3 showing LEAP patients by exposure duration.
A total of 120 post-marketing spontaneous reports were identified for the 2-year period (15 Jun. 2007 through 14 Jun. 2009) where 119 reports were received via LEAP in the U.S. and the remaining one was received from Germany (outside of LEAP). As of 31 Mar. 2009, there were […] of exposure to ambrisentan. All reports were actively followed up in accordance with Gilead Drug Safety procedures to obtain all important information needed to assess a potential relationship with ambrisentan therapy, particularly laboratory data, medical history and concurrent medications. All reports included potential alternative causes for the hepatic events which are unrelated to ambrisentan therapy, such as right-sided heart failure due to underlying PAH, other co-morbidities or concurrent medications.
Of the 120 spontaneous reports, 55 reports were medically-confirmed suspected adverse reaction reports. A total of 28 cases were considered “clinically significant hepatic events” which are defined as (1) ALT and/or AST increases >3×ULN, (2) serum total bilirubin increases >2×ULN, (3) any hepatic event associated with potential signs/symptoms of hepatic disease, or (4) any clinically significant hepatic event term (e.g., liver failure). These cases included 24 reports of serum aminotransferase (ALT/AST) increases >3×ULN; 3 reports of elevated serum total bilirubin>2×ULN; and 1 report of elevated serum aminotransferases with signs and symptoms, but AST and ALT values were not provided. Of these 28 cases, there were 3 reports of both elevated ALT/AST>3×ULN and serum total bilirubin>2×ULN. However, these reports included probable alternate causes of the hepatic events such as sickle cell disease in a patient with baseline serum total bilirubin of ‘7.7’, suspected gall bladder disease in a patient who developed increased serum total bilirubin (5×ULN) and alkaline phosphatase (3.3×ULN) 11 days before an increase in ALT to 3.1×ULN, and documented cardiogenic shock and right-sided heart failure due to PAH.
There were 7 drug-related serious adverse event (SAE) reports from clinical studies which had evidence of alternative causes of the hepatic events or were poorly documented. Six of the reports were considered clinically significant, including one case where ALT/AST was >3×ULN and serum total bilirubin>2×ULN. However, probable causes of the hepatic events in this case included concurrent right heart failure, diagnosed after the patient admitted missing several doses of ambrisentan and 3-4 days of sildenafil and furosemide and with a baseline serum total bilirubin of 1.7×ULN.
The estimated post-marketing incidence rate of hepatic events with ambrisentan in the U.S. during the 2-year post-marketing period is 1.8% (119/6622), detected through LEAP. This rate is consistent with the background rate of placebo-treated PAH patients in clinical trials evaluating ERAs which appeared to have an incidence rate of 2%-3% over a 12- to 24-week period.

[2] = system: patients with PAH (WHO Group 1); test: ARIES-2 12-week placebo-controlled study
Method: Two 12-week, randomized, double-blind, placebo-controlled, multicenter studies were conducted in 393 patients with PAH (WHO Group 1). The two studies were identical in design except for the doses of ambrisentan and the geographic region of the investigational sites. ARIES-1 (Ambrisentan in Pulmonary Arterial Hypertension, Randomized, Double-Blind, Placebo-Controlled, Multicenter, Efficacy Studies) compared once-daily doses of 5 mg and 10 mg ambrisentan to placebo, […] In both studies, ambrisentan or placebo was added to current therapy, which could have included a combination of anticoagulants, diuretics, calcium channel blockers, or digoxin, but not epoprostenol, treprostinil, iloprost, bosentan, or sildenafil. The primary study endpoint was 6-minute walk distance. In addition, clinical worsening, WHO functional class, dyspnea, and SF-36® Health Survey were assessed.
Patients had idiopathic or heritable PAH (64%) or PAH associated with connective tissue diseases (32%), HIV infection (3%), or anorexigen use (1%). There were no patients with PAH associated with congenital heart disease.
Patients had WHO functional class I (2%), II (38%), III (55%), or IV (5%) symptoms at baseline. The mean age of patients was 50 years, 79% of patients were female, and 77% were Caucasian.
Clinical Worsening: Time to clinical worsening of PAH was defined as the first occurrence of death, lung transplantation, hospitalization for PAH, atrial septostomy, study withdrawal due to the addition of other PAH therapeutic agents or study withdrawal due to early escape. Early escape was defined as meeting two or more of the following criteria: a 20% decrease in the 6-minute walk distance; an increase in WHO functional class; worsening right ventricular failure; rapidly progressing cardiogenic, hepatic, or renal failure; or refractory systolic hypotension.

[3] = system: patients with PAH; test: Long-term follow-up of the two pivotal studies and open-label extension; conditions: 2.5, 5 or 10 mg once daily, N=383
Method: Long-term Treatment of PAH: In long-term follow-up of patients who were treated with ambrisentan (2.5 mg, 5 mg, or 10 mg once daily) in the two pivotal studies and their open-label extension (N=383), Kaplan-Meier estimates of survival at 1, 2, and 3 years were 93%, 85%, and 79%, respectively. Of the patients who remained on ambrisentan for up to 3 years, the majority received no other treatment for PAH.

[4] = among the 28 clinically significant cases
[5] = ARIES-2, 5 mg (N = 64), 12 weeks
[6] = ARIES-2, ambrisentan N = 127, 12-week treatment, intention-to-treat

In the case of COC(c1ccccc1)(c1ccccc1)[C@H](Oc1nc(C)cc(C)n1)C(=O)O [Ambrisentan, (25)-2-[(4,6-dimethylpyrimidin-2-yl)oxy]-3-methoxy-3,3-diphenylpropanoic acid], the “post-marketing spontaneous reports of hepatic events, number” value ([1]; 15 Jun. 2007 through 14 Jun. 2009) is reported as 120, the “estimated post-marketing incidence rate of hepatic events” value ([1]; U.S., 2-year post-marketing period, LEAP (119/6622)) is reported as 1.8% and the “reports of both elevated ALT/AST >3×ULN and serum total bilirubin >2×ULN, number” value [1, 4] is reported as 3. For the same compound, the “reports of elevated serum total bilirubin >2×ULN, number” value [1, 4] was 3, the “reports of serum aminotransferase (ALT/AST) increases >3×ULN, number” value [1, 4] was 24 and the “drug-related serious adverse event (SAE) reports from clinical studies, number” value ([1]; hepatic events) was 7. For the same compound, the “cases considered clinically significant hepatic events, number” value ([1]; of 55 medically-confirmed suspected adverse reaction reports) was 28, the “incidence of hepatic events (adverse events and elevated aminotransferase levels)” value ([1]; post-marketing data) was “approximately 2%” and the “Placebo-adjusted mean change from baseline in 6-minute walk distance” value [2, 5] was 32 meters. For the same compound, the “Placebo-adjusted median change from baseline in 6-minute walk distance” value [2, 5] was 30 meters, the “Mean change from baseline in 6-minute walk distance” value ([2]; ARIES-2, 5 mg (N = 64), 12 weeks, mean ± SD) was 22 ± 83 meters and the “Clinical worsening, %” value [2, 6] was 6%. The “Clinical worsening, no.” value [2, 6] was 8, the “Time to clinical worsening, hazard ratio” value ([2]; ARIES-2, versus placebo) was 0.30 and the “Kaplan-Meier estimate of survival” value ([3]; at 1 year) was 93%. For the same compound, the “Kaplan-Meier estimate of survival” value ([3]; at 2 years) was 85% and the “Kaplan-Meier estimate of survival” value ([3]; at 3 years) was 79%.
